Starred links: 1 amine or outer side, 2 acyl side, 3 side chain; linkers in the order of their positions; H or OH if unused. Non-standard residues stand in square brackets, D forms with d. Residues, ends and D or L forms follow the SMILES beside them. Groups on a side chain read outwards from the residue. *: point of attachment. Biotin = O=C1N[C@H]2[C@H](CS[C@H]2CCCCC(=O)*)N1; X1 = CN(C)C(=O)/C=C/CC[C@H](N[*:1])C(=O)[*:2]; PEG4 = NCCOCCOCCOCCOCCC(=O)O; Dab = NCC[C@H](N)C(=O)O
How the values were obtained:
[1] = Endocytosis of fluorescent streptavidin by NRK cells; format: cell-based, rat; details: 2 μM HB2110, 1 μM Cy5-conjugated streptavidin
Method: FIG. 11: (A) Treating NRK cells with increasing concentrations of HB-3-003 in the presence of fluorescently tagged streptavidin leads to increased internalization of streptavidin after a 90 min treatment. (B) Quantification of dose response.
In order to determine the ability of this pathway to clear specifically targeted proteins from the extracellular environment, we synthesized a pentapeptide harboring the electrophilic warhead and a PEG-4 biotin conjugated to the DAB substituted Y amino acid (HB2110). Streptavidin is expected to bind to the biotin arm of the probe, and thus be endocytosed along with the rest of the complex as previously described. To test this hypothesis NRK cells were treated with 2 μM HB2110 and 1 μM Cy5-conjugated streptavidin.
We also synthesized the equivalent pentapeptide harbouring a Gln residue in the place of the electrophilic warhead, with biotin conjugated to the DAB substituted Y amino acid through a PEG linker (HB3-3). We then assed the ability of cells to endocytose fluorescent streptavidin in the presence of HB3-3 and α2M.

α2M = assay: Co-endocytosis of HB230 and fluorescent α2M in NRK cells; format: cell-based; details: larger, but not smaller, puncta
Method: (§1) (C) Fluorescently tagged α2M colocalizes strongly with HB-230.
To obtain definitive evidence for co-endocytosis of HB230 and α2M, a fluorescent batch of α2M was prepared.

[2] = test system: normal rat kidney (NRK) cells; assay: Uptake of fluorescent probe by NRK cells with or without α2M; format: cell-based
Description: as §1
FIG. 15. Uptake of HB-2121.
Puncta of two distinct sizes were observed.
To verify that HB230 internalization was dependent on TG2 activity, HB258 was designed and synthesized as a control probe. This dihydro-analog is otherwise identical to HB230 but lacks its electrophilic warhead and is therefore unable to irreversibly bond to the active site C277 residue of TG2.

[3] = test system: early endosome antigen-1 (EEA-1); assay: Colocalization with early endosomes (EEA-1 antibody staining) in NRK cells; format: cell-based, rat; details: co-incubated with α2M, 90 min
Method: (§2) To establish the identity of these large intracellular puncta, NRK cells were transfected with RFP tagged lysosomal-associated membrane protein (LAMP-1). Wild-type and transfected cells were co-incubated with α2M and HB230 for 90 min prior to fixation. To test the hypothesis that the large puncta corresponded to early endosomes, fixed wild-type cells were stained with an antibody against early endosome antigen-1 (EEA-1).

elastase = assay: Metabolism by elastase; format: in vitro ADME; details: role: substrate
Description: (§3) HB-2121 is analogous to the TG2 inhibitor/probe HB-230 but with one modification; the primary amide C-terminus of HB-230 was replaced with a tertiary dimethyl amide. This change greatly enhances the gastrointestinal stability of the probe.

[4] = test system: lysosomal-associated membrane protein (LAMP-1); assay: Colocalization with RFP-tagged LAMP-1 in transfected NRK cells; format: cell-based, rat; details: co-incubated with α2M, 90 min; large puncta
Method: as §2

pepsin = assay: Metabolism by pepsin; format: in vitro ADME; details: role: substrate
Description: as §3

chymotrypsin = assay: Metabolism by chymotrypsin; format: in vitro ADME; details: role: substrate
Description: (§4) FIGS. 14A-14B. Metabolic stability of HB-230 and HB-2121. (A) HB-230 is transformed by chymotrypsin to give the C-terminal carboxylic acid. This metabolite is subsequently cleaved by carboxypeptidase to give the tetrapeptide without the terminal phenylalanine. (B) HB-2121 is stable to both chymotrypsin and carboxypeptidase mediated metabolism.
as §3

trypsin = assay: Metabolism by trypsin; format: in vitro ADME; details: role: substrate
Description: as §3

WT MEFs = assay: Uptake of HB230 and α2M in wild-type MEFs; format: cell-based; details: exogenous TRX and betamethasone, with α2M
Description: Low density lipoprotein (LDL) receptor-related protein 1 (LRP-1, a.k.a., (α2M receptor or CD91), a member of the LDL receptor family, is responsible for receptor-mediated endocytosis of α2M. Although this receptor is expressed on the surface of a wide range of cell types within the body, α2M endocytosis by LRP-1 is only triggered when this ubiquitous plasma protein undergoes a conformational change upon binding to its protease or non-protease ligands (Bres and Faissner, 2019). We sought to establish whether endocytosis of the ternary α2M-TG2-peptide complex was mediated by LRP-1 using pharmacologic inhibitors of clathrin mediated endocytosis.

carboxypeptidase = assay: Metabolism by carboxypeptidase; format: in vitro ADME; details: role: substrate, subsequent to chymotrypsin
Description: as §4, §3

LRP-1 knockout MEFs = assay: Uptake of HB230 and α2M in LRP-1 knockout MEFs; format: cell-based; details: exogenous TRX and betamethasone, with α2M

Structure (SMILES)	colocalization of Cy5-streptavidin with α2M [1]	overlap with fluorescent α2M (α2M)	uptake by NRK cells in the presence of α2M ([2]; 100 μg/mL of α2M)	uptake by NRK cells ([2]; 1 TM (so in the source) exogenous probe, 90 min)	uptake by NRK cells on supplementation with α2M ([2]; NRK cells supplemented with increasing α2M)	localization relative to EEA-1 [3]	resistance to metabolism by elastase (elastase)	co-localization with RFP-tagged LAMP-1 [4]	resistance to metabolism by pepsin (pepsin)	metabolism by chymotrypsin (chymotrypsin)	resistance to metabolism by trypsin (trypsin)	internalization of ternary complex (WT MEFs)	metabolism by carboxypeptidase (carboxypeptidase)	formation of large co-stained puncta (LRP-1 knockout MEFs)
CC(=O)N1CCC[C@H]1C(=O)N[C@@H](CC/C=C/C(=O)N(C)C)C(=O)N[C@@H](CCNC(=O)CCOCCOCCOCCOCCNC(=O)CCCC[C@@H]1SC[C@@H]2NC(=O)N[C@@H]21)C(=O)N1CCC[C@H]1C(=O)N[C@@H](Cc1ccccc1)C(N)=O [HB-2110] (Ac-P[X1][Dab]([PEG4-Biotin])PF-NH2)	found to colocalize with α2M in the lysosomal compartment	–	–	–	–	–	–	–	–	–	–	–	–	–
CC(=O)N1CCC[C@H]1C(=O)N[C@@H](CC/C=C/C(=O)N(C)C)C(=O)N[C@@H](CCNC(=O)CCCCC[N+]1=C(/C=C/C=C/C=C2/N(C)c3ccc(S(=O)(=O)O)cc3C2(C)C)C(C)(C)c2cc(S(=O)(=O)[O-])ccc21)C(=O)N1CCC[C@H]1C(=O)N[C@@H](Cc1ccccc1)C(N)=O [HB-230, AcPro-HWE-(Dab-SCy5)-Pro-Phe]	–	strong overlap	robustly taken up	robust uptake	strong dose-dependent increase in uptake of HB230 up to ~100 μg/ml	appear in distinct sub-cellular compartments for the most part	resistance to metabolism	strongly co-localizes with RFP-tagged LAMP-1 in the large puncta	resistance to metabolism	enzymatic deamidation at the C-terminus (CONH2→CO2H)	resistance to metabolism	internalized the ternary complex	subsequent cleavage of the C-terminal phenylalanine	marked defect in their ability to form large co-stained puncta
